# From ChEMBL document CHEMBL4196008, “Structure activity relationships, multidrug resistance reversal and selectivity of heteroarylphenyl ABCG2 inhibitors” (Eur J Med Chem, 2018)
# Experiments:
# [1] = molecular target: T1, Broad substrate specificity ATP-binding cassette transporter ABCG2 (Homo sapiens, UniProt Q9UNQ0); experiment: Inhibition of C-terminal GFP-fused human ABCG2 expressed in MDCK2 cells up to 10 uM preincubated for 30 mins followed by Hoechst 33342 addition and measured every 60 secs for 120 mins by Hoechst 33342 accumulation assay; type: cell-based; conditions: 2 h
# T1 sequence (Q9UNQ0 whole entry): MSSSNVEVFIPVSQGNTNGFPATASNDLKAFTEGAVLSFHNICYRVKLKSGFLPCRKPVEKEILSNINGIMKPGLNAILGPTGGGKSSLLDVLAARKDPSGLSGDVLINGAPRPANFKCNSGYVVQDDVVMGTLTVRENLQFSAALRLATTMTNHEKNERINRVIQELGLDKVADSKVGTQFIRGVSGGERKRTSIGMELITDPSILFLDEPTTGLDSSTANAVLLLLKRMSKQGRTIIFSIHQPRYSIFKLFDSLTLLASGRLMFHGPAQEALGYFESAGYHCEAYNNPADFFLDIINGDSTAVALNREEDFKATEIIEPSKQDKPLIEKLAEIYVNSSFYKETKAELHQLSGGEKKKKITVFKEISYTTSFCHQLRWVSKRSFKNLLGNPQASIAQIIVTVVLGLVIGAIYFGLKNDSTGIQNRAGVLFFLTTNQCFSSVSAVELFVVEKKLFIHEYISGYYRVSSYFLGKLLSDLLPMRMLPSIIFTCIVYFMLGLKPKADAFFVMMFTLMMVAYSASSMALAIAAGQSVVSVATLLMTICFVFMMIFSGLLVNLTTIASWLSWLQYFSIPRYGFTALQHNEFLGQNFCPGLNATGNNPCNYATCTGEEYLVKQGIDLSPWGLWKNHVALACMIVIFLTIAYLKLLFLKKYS
# [2] = Resistance factor, ratio of SN-38 GI50 for MDCK2 cells expressing C-terminal GFP-fused human ABCG2 in presence of 0.316 uM test compound to SN-38 GI50 for MDCK2 cells in absence of test compound; type: functional
# [3] = Resistance factor, ratio of SN-38 GI50 for MDCK2 cells expressing C-terminal GFP-fused human ABCG2 in presence of 0.0100 uM test compound to SN-38 GI50 for MDCK2 cells in absence of test compound; type: functional
# [4] = Resistance factor, ratio of SN-38 GI50 for MDCK2 cells expressing C-terminal GFP-fused human ABCG2 in presence of 0.0316 uM test compound to SN-38 GI50 for MDCK2 cells in absence of test compound; type: functional
# ABCG2 [5] = experiment: Therapeutic index, ratio of GI50 for MDCK2 cells expressing C-terminal GFP-fused human ABCG2 to IC50 for C-terminal GFP-fused human ABCG2 expressed in MDCK2 BCRP cells; type: toxicity, cell-based; conditions: dog, read-out: TI
# [6] = Resistance factor, ratio of SN-38 GI50 for MDCK2 cells expressing C-terminal GFP-fused human ABCG2 in presence of 0.100 uM test compound to SN-38 GI50 for MDCK2 cells in absence of test compound; type: functional
# ABCG2 [7] = molecular target: T2, ABCG2 (Homo sapiens, UniProt Q9UNQ0); experiment: Inhibition of C-terminal GFP-fused human ABCG2 expressed in MDCK2 cells up to 10 uM preincubated for 30 mins followed by Hoechst 33342 addition and measured every 60 secs for 120 mins by Hoechst 33342 accumulation assay relative to XR9577; type: cell-based; conditions: MDCK2 cells expressing C-terminal GFP-fused human ABCG2, probe Hoechst 33342, read-out: Imax
# T2 sequence (Q9UNQ0 whole entry): T1 sequence (Q9UNQ0 whole entry)
# [8] = Growth inhibition of MDCK2 cells after 72 hrs by MTT assay; type: cell-based, Canis lupus familiaris, MDCK-II; conditions: dog
# [9] = Growth inhibition of MDCK2 cells expressing C-terminal GFP-fused human ABCG2 after 72 hrs by MTT assay; type: ADME, cell-based, Canis lupus familiaris, MDCK-II; conditions: dog
# [10] = molecular target: T1, Broad substrate specificity ATP-binding cassette transporter ABCG2
# Description: Inhibition of C-terminal GFP-fused human ABCG2 expressed in MDCK2 cells preincubated for 30 mins followed by Hoechst 33342 addition and measured every 60 secs for 120 mins by Hoechst 33342 accumulation assay
# [11] = molecular target: ATP-dependent translocase ABCB1 (Homo sapiens, UniProt P08183); experiment: Inhibition of ABCB1 in human A2780adr cells assessed as reduction in calcein AM levels preincubated for 30 mins followed by calcein AM addition measured immediately at 60 sec time interval for 60 mins by fluorescence assay; type: cell-based
# Chain of ATP-dependent translocase ABCB1 (P08183 whole entry, the tested form may be a part): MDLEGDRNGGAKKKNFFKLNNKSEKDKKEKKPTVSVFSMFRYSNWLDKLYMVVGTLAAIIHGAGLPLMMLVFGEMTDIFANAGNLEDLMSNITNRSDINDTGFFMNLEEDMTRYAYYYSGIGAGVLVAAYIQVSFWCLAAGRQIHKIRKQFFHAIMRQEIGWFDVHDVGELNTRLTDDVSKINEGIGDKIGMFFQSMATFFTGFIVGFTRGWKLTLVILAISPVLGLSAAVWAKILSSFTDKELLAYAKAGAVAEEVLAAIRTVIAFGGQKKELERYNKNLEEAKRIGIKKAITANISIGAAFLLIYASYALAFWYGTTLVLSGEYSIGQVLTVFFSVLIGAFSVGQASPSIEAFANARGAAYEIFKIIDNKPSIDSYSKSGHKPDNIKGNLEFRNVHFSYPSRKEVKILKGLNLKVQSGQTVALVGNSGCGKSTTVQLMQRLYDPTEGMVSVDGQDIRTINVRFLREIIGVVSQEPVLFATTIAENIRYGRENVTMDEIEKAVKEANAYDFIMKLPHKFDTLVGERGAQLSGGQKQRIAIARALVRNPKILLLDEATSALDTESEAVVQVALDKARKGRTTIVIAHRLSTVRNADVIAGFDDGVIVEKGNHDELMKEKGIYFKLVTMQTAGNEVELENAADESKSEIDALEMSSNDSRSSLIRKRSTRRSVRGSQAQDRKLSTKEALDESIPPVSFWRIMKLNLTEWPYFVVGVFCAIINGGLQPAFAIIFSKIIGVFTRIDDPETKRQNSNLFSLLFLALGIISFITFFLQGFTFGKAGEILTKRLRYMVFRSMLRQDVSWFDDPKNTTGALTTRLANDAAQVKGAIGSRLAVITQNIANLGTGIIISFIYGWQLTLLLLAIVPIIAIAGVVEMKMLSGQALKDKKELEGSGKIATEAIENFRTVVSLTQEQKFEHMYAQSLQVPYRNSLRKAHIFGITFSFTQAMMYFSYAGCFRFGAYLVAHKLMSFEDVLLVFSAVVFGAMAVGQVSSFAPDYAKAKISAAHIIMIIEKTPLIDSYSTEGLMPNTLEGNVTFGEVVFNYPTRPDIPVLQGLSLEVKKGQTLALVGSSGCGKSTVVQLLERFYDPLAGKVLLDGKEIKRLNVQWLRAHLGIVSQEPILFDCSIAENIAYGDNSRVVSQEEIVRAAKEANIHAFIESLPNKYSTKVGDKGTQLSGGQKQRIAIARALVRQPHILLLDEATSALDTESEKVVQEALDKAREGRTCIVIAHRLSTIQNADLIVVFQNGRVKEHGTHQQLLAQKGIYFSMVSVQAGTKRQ
# [12] = Resistance factor, ratio of SN-38 GI50 for MDCK2 cells expressing C-terminal GFP-fused human ABCG2 in presence of 1 uM test compound to SN-38 GI50 for MDCK2 cells in absence of test compound; type: functional
# ABCB1 = ABCB1 (Homo sapiens, UniProt P08183); experiment: Inhibition of ABCB1 in human A2780adr cells assessed as reduction in calcein AM levels at 10 uM preincubated for 30 mins followed by calcein AM addition measured immediately at 60 sec time interval for 60 mins by fluorescence assay relative to control; type: cell-based; conditions: probe calcein AM
# Chain of ABCB1 (P08183 whole entry): as the sequence (P08183 whole entry, the tested form may be a part) above
SMILES,Emax at 2 h (ABCG2 [7]),IC50 [10],further results
COc1ccc(C(=O)Nc2ccccc2-c2nn[nH]n2)cc1,,,inhibition (INH) [1]: Not Active
O=C(Nc1ccccc1-c1nnc(-c2ccccc2)o1)c1ccccc1,101%,112 nM,RatioGI50 [2]: 1.49; RatioGI50 [3]: 5.51; RatioGI50 [4]: 2.61; selectivity ratio (ABCG2 [5]): 658; RatioGI50 [6]: 1.52; GI50 at 72 h [8]: 60800 nM; GI50 at 72 h [9]: 73700 nM
COc1ccc(-n2nnc(-c3ccccc3NC(=O)c3ccc(C(F)(F)F)cc3)n2)cc1,,,inhibition (INH) [1]: Not Active
COc1ccc(C(=O)Nc2ccccc2-c2nnn(-c3ccc(OC)cc3)n2)cc1,,,inhibition (INH) [1]: Not Active
COc1ccc(-n2nnc(-c3ccccc3NC(=O)c3cccc4ccccc34)n2)cc1,78%,267 nM,
COc1ccc(C(=O)Nc2ccccc2-c2nnn(-c3ccc(OC)nc3)n2)cc1,103%,61.6 nM,RatioGI50 [2]: 1.04; RatioGI50 [3]: 4.49; RatioGI50 [4]: 2.64; selectivity ratio (ABCG2 [5]): 1270; RatioGI50 [6]: 1.1; IC50 [11]: 8550 nM; GI50 at 72 h [8]: 80100 nM; GI50 at 72 h [9]: 78000 nM
O=C(Nc1ccccc1-n1cc(-c2ccccc2)nn1)c1ccccc1,100%,15300 nM,RatioGI50 [2]: 2.38; RatioGI50 [4]: 5.37; selectivity ratio (ABCG2 [5]): 33.1; RatioGI50 [6]: 3.59; IC50 [11]: 21200 nM; GI50 at 72 h [8]: 452000 nM; RatioGI50 [12]: 1.63; GI50 at 72 h [9]: 506000 nM
COc1ccc(-n2nnc(-c3ccccc3NC(=O)c3cnc4ccccc4c3)n2)cc1,82%,228 nM,
COc1ccc(C(=O)Nc2ccccc2-n2cc(-c3ccc(OC)cc3)nn2)cc1,100%,2360 nM,
O=C(Nc1ccccc1-c1nnn(-c2ccccc2)n1)c1ccc2c(c1)OCO2,123%,259 nM,
COc1ccc(-n2nnc(-c3ccc(NC(=O)c4ccc(C(F)(F)F)cc4)cc3)n2)cc1,100%,39800 nM,
O=C(Nc1ccccc1-c1nnn(-c2ccccc2)n1)c1ccc2c(c1)OCCO2,106%,190 nM,
COc1ccc(-n2nnc(-c3cc(OC)ccc3NC(=O)c3ccc([N+](=O)[O-])cc3)n2)cc1,50%,129 nM,
COc1ccc(-n2nnc(-c3ccccc3NC(=O)C3CCCCC3)n2)cc1,95%,565 nM,
COc1ccc(-n2nnc(-c3cc(OC)ccc3NC(=O)c3ccc(C(F)(F)F)cc3)n2)cc1,96%,77.4 nM,
c1ccc(-c2ccccc2-c2nnn(-c3ccccc3)n2)cc1,100%,8340 nM,
COc1ccc(-n2nnc(-c3ccccc3NC(=O)c3ccccc3)n2)cn1,120%,102 nM,
O=C(Nc1ccccc1-c1nnn(-c2ccccc2)n1)c1ccncc1,97%,287 nM,

SMILES,Emax at 2 h (ABCG2 [7]),IC50 [10],further results
O=C(Nc1ccccc1-c1nnn(-c2ccccc2)n1)c1cnc2ccccc2c1,51%,176 nM,
O=C(Nc1ccccc1-c1nnn(-c2ccccc2)n1)C12CC3CC(CC(C3)C1)C2,99%,1060 nM,"IC50 [11]: 11000 nM; inhibition at 1 h, 10 µM (ABCB1): 51%"
O=C(Nc1ccccc1-c1nn[nH]n1)c1ccccc1,,,inhibition (INH) [1]: Not Active
CC(=O)Nc1ccccc1-c1nnn(-c2ccccc2)n1,100%,6910 nM,
O=C(Nc1ccccc1-c1nnn(-c2ccccc2)n1)c1ccccn1,99%,733 nM,IC50 [11]: 5910 nM
COc1ccc(-c2nnc(-c3ccccc3NC(=O)c3ccc(C(F)(F)F)cc3)o2)cc1,47%,90 nM,
COc1ccc(-c2cn(-c3ccccc3NC(=O)c3ccc(C(F)(F)F)cc3)nn2)cc1,118%,766 nM,
O=C(Nc1ccccc1-c1nnn(-c2ccccc2)n1)c1cccnc1,81%,445 nM,
COc1ccc(-n2nnc(-c3ccccc3NS(=O)(=O)c3ccc(OC)cc3)n2)cc1,100%,7670 nM,
O=C(Nc1ccccc1-c1nnn(-c2ccccc2)n1)c1cccc2ccccc12,85%,430 nM,
O=C(Nc1ccccc1-c1nnn(-c2ccccc2)n1)C1CCCCC1,97%,287 nM,
O=C(Nc1ccccc1-c1nnn(-c2ccccc2)n1)c1cccs1,106%,270 nM,
COc1ccc(-n2nnc(-c3cccc(NC(=O)c4ccc(C(F)(F)F)cc4)c3)n2)cc1,100%,18500 nM,
COc1ccc(-n2nnc(-c3ccccc3NC(=O)c3cccs3)n2)cc1,90%,351 nM,
COc1ccc(C(=O)Nc2ccccc2-c2nnc(-c3ccc(OC)cc3)o2)cc1,124%,438 nM,RatioGI50 [2]: 1.29; RatioGI50 [3]: 6.61; RatioGI50 [4]: 5.07; selectivity ratio (ABCG2 [5]): 836; RatioGI50 [6]: 2.17; GI50 at 72 h [8]: 487000 nM; GI50 at 72 h [9]: 404000 nM
COc1ccc(-n2nnc(-c3ccccc3NC(=O)c3ccc(C(F)(F)F)cc3)n2)cn1,95%,130 nM,
COc1ccc(-n2nnc(-c3ccccc3NC(C)=O)n2)cc1,100%,3230 nM,
COc1ccc(-n2nnc(-c3ccccc3-n3nnc(-c4ccc(C(F)(F)F)cc4)n3)n2)cc1,100%,15800 nM,
